# Where two headings read alike, the source gives them in different places. Non-standard residues stand in square brackets, D forms with d. Residues, ends and D or L forms follow the SMILES beside them. *: point of attachment. Pentanoyl(5-NH-cholesteryl) = CC(C)CCC[C@@H](C)[C@H]1CC[C@H]2[C@@H]3CC=C4C[C@@H](NCCCCC(=O)*)CC[C@]4(C)[C@H]3CC[C@]12C; Cholesteryloxycarbonyl = CC(C)CCC[C@@H](C)[C@H]1CC[C@H]2[C@@H]3CC=C4C[C@@H](OC(=O)*)CC[C@]4(C)[C@H]3CC[C@]12C; Palmitoyl = CCCCCCCCCCCCCCCC(=O)*; PEG3 = NCCOCCOCCOCCC(=O)O; Pra = C#CC[C@H](N)C(=O)O; Aib = CC(C)(N)C(=O)O; Ahx = NCCCCCC(=O)O; Ava = NCCCCC(=O)O; βAla = NCCC(=O)O
# What was measured:
# [1] = system: endosomes of Jurkat lymphocytes; test: Endosome disruption in Jurkat lymphocytes: release of carboxyfluorescein from disulfide probe Compound 2, flow cytometry; details: for Efficacy (% of max. 1): % change in cellular fluorescence relative to maximal response of Compound 1 (100%); for Efficacy (% of max. 1) / Efficacy (% of 1): Jurkat; for Efficacy (% of 1): % of the effect of compound 1, calculated span of dose-response curve, ± standard deviation
# In short: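 Human Jurkat cells treated with compounds plus disulfide probe Compound 2 (2.5 μM) for 14 h at 37 °C. Cytoplasmic release of pH-sensitive fluorophore Compound 3 quantified by flow cytometry. IC50 by non-linear regression; efficacy as % fluorescence change relative to Compound 1 maximum (100%).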
# Jurkat lymphocytes = system: Jurkat lymphocytes
# Description: The effects of the compounds of the invention on human Juikat leukemia cells were evaluated using flow cytometry-based assays of potency, efficacy, and toxicity. […] Analysis of flow cytometry data by non-linear regression was used to determine IC50 values for potency with the efficacy expressed as a percentage. […] Dose-dependent effects on cellular viability after 48 h at 37° C. in culture were also measured by flow cytometry.
# The # represents the compound number in accordance with Tables A, B, and C. Concentrations of compound stock solutions were determined by absorbance measurements at 280 nm. Efficacy was determined as % change in cellular fluorescence relative to the maximal response of Compound 1, defined as 100%. Potencies and efficacies in Jurkat lymphocytes were measured by flow cytometry after treatment of cells with the compounds listed and the fluorescent probe Compound 2 (2.5 μM) for 14 hours. Toxicity to this cell line was determined by flow cytometry analysis of light scattering and counterstaining with PI after treatment for 48 h at 37° C. in culture. […] N.D., not determined.
# [2] = Thermodynamic solubility in PBS (pH 7.4); format: physicochemical; details: for solubility thermodynamic at 24 h / solubility at 24 h: phosphate buffered saline; for solubility at 24 h: Table 1
# From the text: Values in parentheses represent 95% confidence intervals. N.D., not determined.
# Measurements represent duplicate or more replicates, with active peptides subjected to multiple replicates. ND: not determined. The peptide was non-toxic and soluble in cell culture medium at this concentration.
# [3] = read-out: Potency (EC50), Table 1, Jurkat lymphocytes, probe Compound 2 (2.5 μM), 14 hours, 95% confidence interval in neighbouring cell
# [4] = read-out: Potency, Table 2, EC50 ± standard deviation, Jurkat lymphocytes, disulfide-linked fluorescent probe (2.5 μM), 14 h
# [5] = read-out: Toxicity, Table 3, IC50, Jurkat, 48 h at 37° C., footnote a: non-toxic and soluble in cell culture medium at this concentration
# [6] = pH 7.4, Table 3, PBS pH 7.4, 24 h at 22° C., read-out: Solubility
# [7] = PBS pH 7.4, 24 hours at 22° C., ±S.D., read-out: Solubility (aq.)
# [8] = pH 7.4, Table 1, PBS pH 7.4, 24 hours at 22° C., ±S.D., read-out: Solubility (aq.)
# [9] = read-out: Toxicity (IC50), Table 1, Jurkat lymphocytes, 48 h at 37° C.
smiles,measurement,setting,value
CC(C)[C@H](NC(=O)[C@@H](NC(=O)[C@@H]1CCCN1C(=O)[C@@H]1CCCN1C(=O)[C@H](Cc1c[nH]c2ccccc12)NC(=O)[C@H](Cc1c[nH]c2ccccc12)NC(=O)[C@H](C)NC(=O)[C@H](Cc1c[nH]c2ccccc12)NC(=O)[C@H](Cc1ccc(O)cc1)NC(=O)C(C)(C)NC(=O)C(C)(C)NC(=O)C(C)(C)NC(=O)C(C)(C)N)C(C)C)C(N)=O [Compound 52] (H-[Aib][Aib][Aib][Aib]YWAWWPPVV-NH2),Efficacy (% of max. 1),"[1]; Table 1, 14 hours",87%
same,Efficacy (% of 1),"[1]; Table 2, 14 h",105 ± 19%
same,EC50,[1]; [3],1900 nM
same,EC50,[1]; [4],3200 ± 1400 nM
same,IC50,Jurkat lymphocytes; [5],> 16000 nM
same,solubility thermodynamic at 24 h,[2]; [6],21 ± 1 µM
CC(C)[C@H](NC(=O)[C@@H](NC(=O)[C@@H]1CCCN1C(=O)[C@@H]1CCCN1C(=O)[C@H](Cc1ccc(O)cc1)NC(=O)[C@H](Cc1c[nH]c2ccccc12)NC(=O)[C@H](C)NC(=O)[C@H](Cc1c[nH]c2ccccc12)NC(=O)[C@H](Cc1c[nH]c2ccccc12)NC(=O)[C@H](C)NC(=O)[C@H](Cc1c[nH]c2ccccc12)NC(=O)[C@H](Cc1c[nH]c2ccccc12)NC(=O)C(C)(C)NC(=O)C(C)(C)NC(=O)C(C)(C)NC(=O)C(C)(C)N)C(C)C)C(N)=O [Compound 79] (H-[Aib][Aib][Aib][Aib]WWAWWAWYPPVV-NH2),Efficacy (% of 1),"[1]; Table 2, 14 h",86 ± 5%
same,EC50,[1]; [4],220 ± 60 nM
same,IC50,Jurkat lymphocytes; [5],> 16000 nM
same,solubility thermodynamic at 24 h,[2]; [6],2 ± 1 µM
"CC(C)CCC[C@@H](C)[C@H]1CC[C@H]2[C@@H]3CC=C4C[C@@H](OC(=O)NCCC(=O)NCCC(=O)N[C@@H](CCC(=O)O)C(=O)N[C@@H](CCC(=O)O)C(=O)NCCOCCOCCOCCC(=O)NCCOCCOCCOCCC(=O)NC(C)(C)C(=O)NC(C)(C)C(=O)NC(C)(C)C(=O)NC(C)(C)C(=O)N[C@@H](Cc5c[nH]c6ccccc56)C(=O)N[C@@H](Cc5c[nH]c6ccccc56)C(=O)N[C@@H](C)C(=O)N[C@@H](Cc5ccc(O)cc5)C(=O)N[C@@H](Cc5c[nH]c6ccccc56)C(=O)N5CCC[C@H]5C(=O)N5CCC[C@H]5C(=O)N[C@H](C(=O)N[C@@H](C)C(N)=O)C(C)C)CC[C@]4(C)[C@H]3CC[C@]12C [Compound 34, R″ = BEEOOUUUUWWAYWPPVA-CONH2] ({Cholesteryloxycarbonyl-βAla-βAla}-EE[PEG3][PEG3][Aib][Aib][Aib][Aib]WWAYWPPVA-NH2)",EC50,[1]; 14 h,100 nM
same,IC50,Jurkat lymphocytes; 48 h,17000 nM
same,solubility at 24 h,[2]; [7],405 µM
"CC(C)CCC[C@@H](C)[C@H]1CC[C@H]2[C@@H]3CC=C4C[C@@H](NCCCCC(=O)N[C@@H](CCC(=O)O)C(=O)N[C@@H](CCC(=O)O)C(=O)NCCCCCC(=O)NCCCCCC(=O)N[C@@H](C)C(=O)N[C@@H](C)C(=O)N[C@@H](C)C(=O)N[C@@H](Cc5c[nH]c6ccccc56)C(=O)N[C@@H](Cc5c[nH]c6ccccc56)C(=O)N[C@@H](C)C(=O)N[C@@H](Cc5ccc(O)cc5)C(=O)N[C@@H](Cc5c[nH]c6ccccc56)C(=O)N5CCC[C@H]5C(=O)N5CCC[C@H]5C(=O)N[C@H](C(=O)N[C@@H](C)C(N)=O)C(C)C)CC[C@]4(C)[C@H]3CC[C@]12C [Compound 5, R = EEXXAAAWWAYWPPVA-CONH2] ({Pentanoyl(5-NH-cholesteryl)}-EE[Ahx][Ahx]AAAWWAYWPPVA-NH2)",EC50,[1]; 14 h,400 nM
same,IC50,Jurkat lymphocytes; 48 h,14000 nM
same,solubility thermodynamic at 24 h,[2]; [8],10 ± 1 µM
"CCCCCCCCCCCCCCCC(=O)NCCCCC(=O)NCCC(=O)N[C@@H](CCC(=O)O)C(=O)N[C@@H](CCC(=O)O)C(=O)NCCOCCOCCOCCC(=O)NCCOCCOCCOCCC(=O)NC(C)(C)C(=O)NC(C)(C)C(=O)NC(C)(C)C(=O)NC(C)(C)C(=O)N[C@@H](Cc1c[nH]c2ccccc12)C(=O)N[C@@H](Cc1c[nH]c2ccccc12)C(=O)N[C@@H](C)C(=O)N[C@@H](Cc1ccc(O)cc1)C(=O)N[C@@H](Cc1c[nH]c2ccccc12)C(=O)N1CCC[C@H]1C(=O)N1CCC[C@H]1C(=O)N[C@H](C(=O)N[C@@H](C)C(N)=O)C(C)C [Compound 32, R′ - BEEOOUUUUWWAYWPPVA-CONH2] ({Palmitoyl-Ava-βAla}-EE[PEG3][PEG3][Aib][Aib][Aib][Aib]WWAYWPPVA-NH2)",Efficacy (% of max. 1),"[1]; Table 1, 14 hours",121%
same,Potency relative to Compound 26,[1]; palmitic acid derivative vs cholesterylamine,sevenfold less potent
same,EC50,[1]; [3],700 nM
same,IC50,Jurkat lymphocytes; [9],16000 nM
same,Solubility in PBS relative to Compound 26,[2]; PBS,sixtyfold more soluble
same,solubility at 24 h,[2]; [7],856 µM
"CC(C)CCC[C@@H](C)[C@H]1CC[C@H]2[C@@H]3CC=C4C[C@@H](NCCCCC(=O)NCCC(=O)N[C@@H](CCC(=O)O)C(=O)N[C@@H](CCC(=O)O)C(=O)NCCOCCOCCOCCC(=O)NCCOCCOCCOCCC(=O)NC(C)(C)C(=O)NC(C)(C)C(=O)NC(C)(C)C(=O)NC(C)(C)C(=O)N[C@@H](Cc5ccc(O)cc5)C(=O)N[C@@H](Cc5ccc(O)cc5)C(=O)N[C@@H](C)C(=O)N[C@@H](Cc5ccc(O)cc5)C(=O)N[C@@H](Cc5ccc(O)cc5)C(=O)N5CCC[C@H]5C(=O)N5CCC[C@H]5C(=O)N[C@H](C(=O)N[C@H](C(N)=O)C(C)C)C(C)C)CC[C@]4(C)[C@H]3CC[C@]12C [Compound 28, R = BEEOOUUUUYYAYYPPVV-CONH2] ({Pentanoyl(5-NH-cholesteryl)-βAla}-EE[PEG3][PEG3][Aib][Aib][Aib][Aib]YYAYYPPVV-NH2)",EC50,[1]; 14 h,60 nM
same,IC50,Jurkat lymphocytes; 48 h,3000 nM
same,solubility thermodynamic at 24 h,[2]; [8],63 ± 28 µM
"C#CC[C@H](NC(=O)[C@H](CCC(=O)O)NC(=O)[C@H](CCC(=O)O)NC(=O)CCNC(=O)CCNC(=O)O[C@H]1CC[C@@]2(C)C(=CC[C@H]3[C@@H]4CC[C@H]([C@H](C)CCCC(C)C)[C@@]4(C)CC[C@@H]32)C1)C(=O)NCCOCCOCCOCCC(=O)NCCOCCOCCOCCC(=O)NC(C)(C)C(=O)NC(C)(C)C(=O)NC(C)(C)C(=O)NC(C)(C)C(=O)N[C@@H](Cc1c[nH]c2ccccc12)C(=O)N[C@@H](Cc1c[nH]c2ccccc12)C(=O)N[C@@H](C)C(=O)N[C@@H](Cc1ccc(O)cc1)C(=O)N[C@@H](Cc1c[nH]c2ccccc12)C(=O)N1CCC[C@H]1C(=O)N1CCC[C@H]1C(=O)N[C@H](C(=O)N[C@H](C(N)=O)C(C)C)C(C)C [Compound 36, R″ = BEEZOOUUUUWWAYWPPVV-CONH2] ({Cholesteryloxycarbonyl-βAla-βAla}-EE[Pra][PEG3][PEG3][Aib][Aib][Aib][Aib]WWAYWPPVV-NH2)",EC50,[1]; 14 h,60 nM
same,IC50,Jurkat lymphocytes; 48 h,13000 nM
same,solubility thermodynamic at 24 h,[2]; [8],233 ± 21 µM
"CC(C)CCC[C@@H](C)[C@H]1CC[C@H]2[C@@H]3CC=C4C[C@@H](NCCCCC(=O)NCCC(=O)N[C@@H](CCC(=O)O)C(=O)N[C@@H](CCC(=O)O)C(=O)NCCOCCOCCOCCC(=O)NCCOCCOCCOCCC(=O)NC(C)(C)C(=O)NC(C)(C)C(=O)NC(C)(C)C(=O)NC(C)(C)C(=O)N[C@@H](Cc5ccc(O)cc5)C(=O)N[C@@H](Cc5ccc(O)cc5)C(=O)N[C@@H](Cc5ccc(O)cc5)C(=O)N[C@@H](Cc5ccc(O)cc5)C(=O)N[C@@H](Cc5ccc(O)cc5)C(=O)N5CCC[C@H]5C(=O)N5CCC[C@H]5C(=O)N[C@H](C(=O)N[C@H](C(N)=O)C(C)C)C(C)C)CC[C@]4(C)[C@H]3CC[C@]12C [Compound 29, R = BEEOOUUUUYYYYYPPVV-CONH2] ({Pentanoyl(5-NH-cholesteryl)-βAla}-EE[PEG3][PEG3][Aib][Aib][Aib][Aib]YYYYYPPVV-NH2)",EC50,[1]; 14 h,80 nM
same,IC50,Jurkat lymphocytes; 48 h,3000 nM
same,solubility thermodynamic at 24 h,[2]; [8],90 ± 2 µM
CC(=O)NC(C)(C)C(=O)NC(C)(C)C(=O)NC(C)(C)C(=O)NC(C)(C)C(=O)N[C@@H](Cc1c[nH]c2ccccc12)C(=O)N[C@@H](Cc1c[nH]c2ccccc12)C(=O)N[C@@H](C)C(=O)N[C@@H](Cc1ccc(O)cc1)C(=O)N[C@@H](Cc1c[nH]c2ccccc12)C(=O)N1CCC[C@H]1C(=O)N1CCC[C@H]1C(=O)N[C@H](C(=O)N[C@@H](C)C(N)=O)C(C)C [Compound 42] (Ac-[Aib][Aib][Aib][Aib]WWAYWPPVA-NH2),Efficacy (% of max. 1),"[1]; Table 1, 14 hours",85%
same,EC50,[1]; [3],5300 nM
same,IC50,Jurkat lymphocytes; [9],> 100000 nM
same,solubility thermodynamic at 24 h,[2]; [8],11 ± 1 µM

# — patent US10766928B2, “Targeted conformationally-constrained kinked endosomal disrupting peptides” (priority 2012, dated 2020)
